In series [1] the target is T1, α2B (h) (Homo sapiens, UniProt P18089).
T1 sequence (P18089 1-450): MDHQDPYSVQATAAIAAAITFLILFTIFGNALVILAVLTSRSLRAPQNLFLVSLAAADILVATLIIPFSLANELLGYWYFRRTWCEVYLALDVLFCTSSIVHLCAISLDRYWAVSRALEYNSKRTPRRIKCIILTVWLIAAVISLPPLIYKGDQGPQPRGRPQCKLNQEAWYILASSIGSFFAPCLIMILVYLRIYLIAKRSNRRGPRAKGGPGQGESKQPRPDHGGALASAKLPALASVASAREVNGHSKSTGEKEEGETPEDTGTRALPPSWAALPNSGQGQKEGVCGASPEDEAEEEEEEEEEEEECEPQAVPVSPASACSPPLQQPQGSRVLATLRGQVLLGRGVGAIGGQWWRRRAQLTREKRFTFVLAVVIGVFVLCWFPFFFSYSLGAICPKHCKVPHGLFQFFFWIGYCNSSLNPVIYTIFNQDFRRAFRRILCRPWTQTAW
In words: α2B (h) (antagonist radioligand) binding. Particulars: for nH: α2B (h) (antagonist radioligand). The protocol:
(§1) Representative compounds were tested to determine IC50 or EC50 in receptor functional assays. One or more of the procedures disclosed in the following references were used: Devedjian, J. C. et al., Eur. J. Pharmacol., 1994, 252, 43-49; Wang, J. B. et al., FEBS Lett., 1994, 338, 217-222; Simonin, F. et al., Mol. Pharmacol., 1994, 46, 1015-1021; Meng, F. et al., Proc. Natl. Acad. Sci. U.S.A., 1993, 90, 9954-9958; Avidor-Reiss, T. et al., FEBS Lett., 1995, 361, 70-74; Eason, M. G. et al., J. Biol. Chem., 1992, 267, 15795-15801; Law, P. Y. et al., Mol. Pharmacol., 1993, 43, 684-693. In each experiment and if applicable, the respective reference compound was tested concurrently with the test compounds. Compound binding was calculated as a % inhibition of the binding of a radioactively labeled ligand specific for each target. Cellular agonist effect was calculated as a % of control response to a known reference agonist for each target and cellular antagonist effect was calculated as a % inhibition of control reference agonist response for each target. Only the calculable IC50 and EC50 are reported below.

For series [2], the target named is T2, μ (MOP) (h) (Homo sapiens, UniProt P35372). Type of series: cell-based.
T2 sequence (P35372 whole entry): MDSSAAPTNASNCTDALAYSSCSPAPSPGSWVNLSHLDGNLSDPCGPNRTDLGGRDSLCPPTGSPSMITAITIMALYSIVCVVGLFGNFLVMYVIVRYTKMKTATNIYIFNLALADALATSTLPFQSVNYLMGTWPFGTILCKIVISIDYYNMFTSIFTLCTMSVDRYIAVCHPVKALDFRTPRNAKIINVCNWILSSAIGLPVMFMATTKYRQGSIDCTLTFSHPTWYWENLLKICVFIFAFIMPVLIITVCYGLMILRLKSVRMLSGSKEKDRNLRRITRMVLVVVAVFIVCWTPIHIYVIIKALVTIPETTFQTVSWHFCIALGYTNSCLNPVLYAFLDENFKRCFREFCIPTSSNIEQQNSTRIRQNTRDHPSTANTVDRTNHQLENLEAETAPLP
Series [3] deals with T1, α2B (h). In words: α2B (h) (antagonist effect) cellular functional assay. Format: cell-based. The protocol: as §1
The target in series [4] is κ (KOP) (Rattus norvegicus, UniProt P34975). Type of series: binding.
Chain of κ (KOP) (P34975 whole entry): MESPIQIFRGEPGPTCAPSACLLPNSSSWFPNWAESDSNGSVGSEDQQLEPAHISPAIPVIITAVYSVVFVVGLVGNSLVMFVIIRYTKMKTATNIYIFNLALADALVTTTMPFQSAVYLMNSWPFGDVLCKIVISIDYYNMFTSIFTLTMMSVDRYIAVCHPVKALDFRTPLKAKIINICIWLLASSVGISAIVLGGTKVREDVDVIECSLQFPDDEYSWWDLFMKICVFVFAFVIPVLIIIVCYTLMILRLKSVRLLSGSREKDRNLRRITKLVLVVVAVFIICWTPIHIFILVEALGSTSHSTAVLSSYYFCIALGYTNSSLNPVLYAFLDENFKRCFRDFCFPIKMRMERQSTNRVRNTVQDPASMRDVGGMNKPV
The test system of series [5] is L-DOPA induced dyskinesias. As to the kind of experiment: L-DOPA induced dyskinesias, Primate in vivo model.
Series [6] concerns CYP3A4. To be noted: human hepatocytes, 72 hr, any concentration tested.
In series [7] the test system is L-dopa-induced dyskinesia. In words: L-dopa-induced dyskinesia, comparison with amantadine. Particulars: model not specified. Format: in vivo.
Series [8] can be described thus: Toxicity in animal models. Type of series: in vivo. To be noted: many animal models, even at high concentrations.
The target in series [9] is hERG potassium channel (Homo sapiens, UniProt Q12809). As to the kind of experiment: hERG channel inhibition, IonWorks automated patch clamp, CHO-hERG cells. To be noted: up to 25 micromolar. (In general: hERG is a cardiac potassium channel; its block is linked to QT prolongation.)
Chain of hERG potassium channel (Q12809 whole entry): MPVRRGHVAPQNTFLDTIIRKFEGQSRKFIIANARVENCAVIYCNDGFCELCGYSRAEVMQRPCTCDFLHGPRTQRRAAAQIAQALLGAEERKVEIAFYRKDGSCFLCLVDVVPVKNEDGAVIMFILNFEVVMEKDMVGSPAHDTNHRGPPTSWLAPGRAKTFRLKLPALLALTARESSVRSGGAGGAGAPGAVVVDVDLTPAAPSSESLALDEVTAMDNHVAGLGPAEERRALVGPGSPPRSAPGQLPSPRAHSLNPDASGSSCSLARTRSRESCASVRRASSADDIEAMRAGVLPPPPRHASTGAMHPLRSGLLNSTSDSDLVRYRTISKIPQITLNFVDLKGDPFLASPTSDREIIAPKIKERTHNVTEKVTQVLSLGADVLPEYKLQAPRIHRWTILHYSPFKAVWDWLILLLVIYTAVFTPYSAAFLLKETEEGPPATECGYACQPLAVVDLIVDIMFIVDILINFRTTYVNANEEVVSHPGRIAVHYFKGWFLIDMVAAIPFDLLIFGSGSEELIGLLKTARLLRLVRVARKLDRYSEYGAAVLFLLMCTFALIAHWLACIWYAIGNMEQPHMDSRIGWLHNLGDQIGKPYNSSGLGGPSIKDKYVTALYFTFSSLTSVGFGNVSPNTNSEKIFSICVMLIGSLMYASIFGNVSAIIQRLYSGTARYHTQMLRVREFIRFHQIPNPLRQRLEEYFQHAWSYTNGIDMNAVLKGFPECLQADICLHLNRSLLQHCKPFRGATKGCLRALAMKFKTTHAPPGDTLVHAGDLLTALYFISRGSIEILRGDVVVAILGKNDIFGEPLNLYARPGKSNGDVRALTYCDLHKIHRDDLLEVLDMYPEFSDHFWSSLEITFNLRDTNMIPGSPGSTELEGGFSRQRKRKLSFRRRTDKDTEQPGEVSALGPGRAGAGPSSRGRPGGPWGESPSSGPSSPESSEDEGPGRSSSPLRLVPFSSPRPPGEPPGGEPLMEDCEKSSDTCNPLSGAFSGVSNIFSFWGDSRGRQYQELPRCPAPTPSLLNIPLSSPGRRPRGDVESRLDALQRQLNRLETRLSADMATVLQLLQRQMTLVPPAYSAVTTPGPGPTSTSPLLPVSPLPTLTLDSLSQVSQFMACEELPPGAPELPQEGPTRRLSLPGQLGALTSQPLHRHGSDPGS
Series [10] relates to L-DOPA induced dyskinesias. As to the kind of experiment: L-DOPA induced dyskinesias, Rodent in vivo model.
The target in series [11] is CYP2C9 (Homo sapiens, UniProt P11712). In words: CYP2C9 inhibition, human liver microsomes (tolbutamide). Particulars: 0.1-25 μM. On the technique in general: Microsomes from liver hold many membrane-bound enzymes, among them those of drug oxidation.
Chain of CYP2C9 (P11712 whole entry): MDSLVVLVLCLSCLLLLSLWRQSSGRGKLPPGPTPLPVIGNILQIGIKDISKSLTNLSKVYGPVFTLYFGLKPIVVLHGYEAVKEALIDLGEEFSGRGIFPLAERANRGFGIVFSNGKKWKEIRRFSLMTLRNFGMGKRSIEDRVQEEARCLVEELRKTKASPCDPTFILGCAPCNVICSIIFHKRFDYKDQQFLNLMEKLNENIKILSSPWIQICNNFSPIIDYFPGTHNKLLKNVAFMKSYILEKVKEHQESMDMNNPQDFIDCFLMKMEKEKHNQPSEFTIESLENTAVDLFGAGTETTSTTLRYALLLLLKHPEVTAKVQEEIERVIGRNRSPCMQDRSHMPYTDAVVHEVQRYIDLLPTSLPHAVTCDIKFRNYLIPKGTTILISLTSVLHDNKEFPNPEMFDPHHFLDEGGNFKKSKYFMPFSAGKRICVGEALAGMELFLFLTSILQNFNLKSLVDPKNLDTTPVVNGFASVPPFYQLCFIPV
In series [12] the test system is CYP2B6. Particulars: human hepatocytes, 72 hr, at 100 μM.
Series [13] relates to P-glycoprotein (MDR1). In words: MDR1-MDCK permeability and P-gp substrate identification (bi-directional). Particulars: dog, MDCK-MDR1, pH 7.4; minus inhibitor (no cyclosporin A). Format: in vitro ADME, canine. As for the experimental part: (§2) Cells were then incubated with HBSS at the desired pH in both apical and basolateral compartments for 40 min to stabilize physiological parameters.
(§3) The fluorescent integrity marker lucifer yellow was also included in the dosing solution. […] Analytical standards were prepared from test compound DMSO dilutions and transferred to buffer, maintaining a 1% v/v DMSO concentration.
(§4) For assessment of A-B permeability, HBSS was removed from the apical compartment and replaced with test compound dosing solution. […] For assessment of B-A permeability, HBSS was removed from the companion plate and replaced with test compound dosing solution. […] Test compound permeability was assessed in duplicate. Compounds of known permeability characteristics were run as controls on each assay plate. […] Cyprotex generic analytical conditions were used. The starting concentration (C0) was determined from the dosing solution and the experimental recovery calculated from C0 and both apical and basolateral compartment concentrations.
(§5) The integrity of the monolayer throughout the experiment was checked by monitoring lucifer yellow permeation using fluorimetric analysis.

Series [14] deals with MDR1-MDCK cells. The series is described as above. Type of series: in vitro ADME, canine. Particulars: 10 μM, MDR1-MDCK, pH 7.4. The protocol: as §2, §3, §4, §5
Series [15] is described as follows: Caco-2 permeability (bi-directional). Particulars: human, Caco-2, pH 6.8.
Series [16] concerns Caco-2 cells. As to the kind of experiment: Caco-2 permeability (bi-directional). To be noted: 10 μM, pH gradient (pH 6.8/7.4). A general note: Caco-2 cells form a polarised layer with tight junctions and transporters.
Series [17] concerns CYP1A2. To be noted: human hepatocytes, 72 hr, any concentration tested.
Series [18] concerns the target CYP2B6 (Homo sapiens, UniProt P20813). Particulars: 0.1-25 μM, human liver microsomes, bupropion.
For series [19], the target named is CYP2C8 (Homo sapiens, UniProt P10632). In words: CYP2C8 inhibition, human liver microsomes (paclitaxel). Particulars: 0.1-25 μM.
In series [20] the target is T3, CYP2D6 (Homo sapiens, UniProt P10635).
T3 construct: from tissue
T3 sequence (P10635 whole entry): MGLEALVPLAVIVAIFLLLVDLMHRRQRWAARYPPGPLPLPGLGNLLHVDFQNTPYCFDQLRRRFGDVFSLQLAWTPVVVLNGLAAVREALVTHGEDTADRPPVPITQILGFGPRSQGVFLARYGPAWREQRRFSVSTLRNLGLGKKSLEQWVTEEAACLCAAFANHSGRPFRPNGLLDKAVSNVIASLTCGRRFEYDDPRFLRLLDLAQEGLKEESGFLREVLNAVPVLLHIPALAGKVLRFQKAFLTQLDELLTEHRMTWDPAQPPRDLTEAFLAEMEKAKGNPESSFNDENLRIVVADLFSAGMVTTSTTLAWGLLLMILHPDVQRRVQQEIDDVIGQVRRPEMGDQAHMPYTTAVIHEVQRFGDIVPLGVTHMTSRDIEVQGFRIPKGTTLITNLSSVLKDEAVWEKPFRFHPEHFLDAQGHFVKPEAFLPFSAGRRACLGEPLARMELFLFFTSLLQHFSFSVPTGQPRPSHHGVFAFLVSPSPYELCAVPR
As to the kind of experiment: Time dependent inhibition of CYP2D6 (dextromethorphan; IC50 shift). Type of series: in vitro ADME. As for the experimental part:
Six test compound concentrations (0.1, 0.25, 1, 2.5, 10, 25 μM; final DMSO concentration 0.25%, final microsome concentration 0.5 mg/mL) were either pre-incubated for 30 min in the absence and presence of NADPH or undergo a 0 min pre-incubation. The probe substrate dextromethorphan (5 μM) and NADPH (1 mM) were then added (final DMSO concentration 0.3%) and the samples incubated for 5 min at 37° C. The selective time dependent CYP2D6 inhibitor, paroxetine, was screened alongside the test compounds as a positive control. The reactions were terminated by the addition of an aliquot of the incubation into methanol. The samples were centrifuged at 2500 rpm for 30 min at 4° C., and aliquots of the supernatant are diluted with formic acid in deionised water (final concentration 0.1%) containing internal standard prior to analysis of dextrorphan by LC-MS/MS.

The target of series [21] is CYP2C19 (Homo sapiens, UniProt P33261). In words: CYP2C19 inhibition, human liver microsomes (mephenytoin). Particulars: up to 25 micromolar.
Series [22] concerns the target T4, CYP3A4 (Homo sapiens, UniProt P08684). To be noted: 0.1-25 μM, human liver microsomes, substrate midazolam.
The target of series [23] is T4, CYP3A4. Particulars: 0.1-25 μM, human liver microsomes, substrate testosterone.
Series [24] can be described thus: Brain tissue binding, equilibrium dialysis, mouse. To be noted: 5 μM.
A short description of series [25]: Bioavailability and stability evaluation. Particulars: summary.
Series [26] addresses CYP1A2 (Homo sapiens, UniProt P05177). Particulars: 0.1-25 μM, human liver microsomes, phenacetin.
Series [27] is described as follows: Binding to plasma proteins. Format: in vitro ADME. To be noted: very small species differences.
Series [28] addresses δ2 (DOP) (h) (Homo sapiens, UniProt P41143). Type of series: binding.
Series [29] addresses T2, μ (MOP) (h). Type of series: binding.

Read-outs that look alike come from different tables or passages of the source.

One may read the IC50 as the concentration that inhibits the measured activity by half. In general, Ki refers to the dissociation constant of the complex between target and ligand, obtained from inhibition or displacement. A higher Ki goes with lower affinity. By Kb is commonly meant the equilibrium dissociation constant of an antagonist, usually derived from a functional assay. Low readings indicate a more potent antagonist, high ones a less potent antagonist. In general, efflux ratio refers to the permeability from basolateral to apical divided by that in the opposite direction, in the common usage. One may read the inhibition as the relative decrease from the control value, in per cent.

Chain of δ2 (DOP) (h) (P41143 whole entry): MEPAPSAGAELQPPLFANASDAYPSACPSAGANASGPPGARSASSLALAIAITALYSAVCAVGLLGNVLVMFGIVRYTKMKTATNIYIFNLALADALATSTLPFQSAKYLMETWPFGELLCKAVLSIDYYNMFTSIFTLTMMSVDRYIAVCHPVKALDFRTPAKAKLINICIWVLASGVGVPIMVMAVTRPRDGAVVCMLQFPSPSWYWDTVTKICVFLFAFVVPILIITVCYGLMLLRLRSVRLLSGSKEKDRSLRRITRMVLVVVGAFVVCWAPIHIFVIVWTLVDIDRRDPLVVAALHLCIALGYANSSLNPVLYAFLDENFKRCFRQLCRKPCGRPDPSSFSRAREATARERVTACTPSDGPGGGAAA
T4 sequence (P08684 whole entry): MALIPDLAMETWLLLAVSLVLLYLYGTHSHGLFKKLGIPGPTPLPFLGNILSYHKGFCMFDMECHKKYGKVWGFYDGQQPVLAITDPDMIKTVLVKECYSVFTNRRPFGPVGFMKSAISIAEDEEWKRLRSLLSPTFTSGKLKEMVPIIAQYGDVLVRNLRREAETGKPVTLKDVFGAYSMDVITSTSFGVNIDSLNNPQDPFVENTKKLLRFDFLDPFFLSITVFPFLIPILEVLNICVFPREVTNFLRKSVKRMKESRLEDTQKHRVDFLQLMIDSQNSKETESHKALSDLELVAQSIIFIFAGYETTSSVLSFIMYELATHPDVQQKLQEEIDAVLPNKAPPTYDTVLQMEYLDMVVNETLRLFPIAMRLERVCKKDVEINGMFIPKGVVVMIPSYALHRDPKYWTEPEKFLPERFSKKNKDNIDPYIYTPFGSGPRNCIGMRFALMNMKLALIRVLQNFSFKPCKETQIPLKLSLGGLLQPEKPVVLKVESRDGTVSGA
Chain of CYP2B6 (Homo sapiens, UniProt P20813) (P20813 whole entry): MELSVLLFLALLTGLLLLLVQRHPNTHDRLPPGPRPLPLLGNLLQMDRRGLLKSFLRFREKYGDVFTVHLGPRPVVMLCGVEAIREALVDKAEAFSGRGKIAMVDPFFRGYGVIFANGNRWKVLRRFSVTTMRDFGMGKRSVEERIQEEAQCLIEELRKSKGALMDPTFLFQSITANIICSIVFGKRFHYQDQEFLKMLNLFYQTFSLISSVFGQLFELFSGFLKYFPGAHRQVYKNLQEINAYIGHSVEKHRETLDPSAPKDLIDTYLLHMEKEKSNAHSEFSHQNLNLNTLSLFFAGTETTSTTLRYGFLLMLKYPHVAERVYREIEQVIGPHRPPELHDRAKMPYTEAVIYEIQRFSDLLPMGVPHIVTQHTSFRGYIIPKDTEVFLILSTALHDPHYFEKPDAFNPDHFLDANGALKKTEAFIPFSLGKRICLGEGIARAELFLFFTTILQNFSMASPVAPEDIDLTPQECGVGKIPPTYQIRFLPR
Chain of CYP1A2 (Homo sapiens, UniProt P05177) (P05177 whole entry): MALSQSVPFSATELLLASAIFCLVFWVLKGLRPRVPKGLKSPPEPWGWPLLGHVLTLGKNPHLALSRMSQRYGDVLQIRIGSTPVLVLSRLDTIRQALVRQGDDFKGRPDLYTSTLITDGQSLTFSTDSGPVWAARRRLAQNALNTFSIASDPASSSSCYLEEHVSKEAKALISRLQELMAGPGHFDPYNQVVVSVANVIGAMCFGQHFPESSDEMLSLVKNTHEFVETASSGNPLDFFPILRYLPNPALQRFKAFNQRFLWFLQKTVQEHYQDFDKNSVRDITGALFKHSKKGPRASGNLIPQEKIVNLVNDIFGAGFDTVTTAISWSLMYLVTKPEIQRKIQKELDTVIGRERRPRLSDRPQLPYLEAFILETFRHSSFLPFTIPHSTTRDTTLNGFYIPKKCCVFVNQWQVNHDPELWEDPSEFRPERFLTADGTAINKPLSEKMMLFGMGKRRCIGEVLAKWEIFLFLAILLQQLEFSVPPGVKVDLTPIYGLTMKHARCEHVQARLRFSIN

Take `O=C(CCCCCCCBr)NC1CCN(CCc2ccccc2)CC1` [8-bromo-N-(1-phenethylpiperidin-4-yl)octanamide]: in series [1], the half-maximal inhibitory concentration (IC50) stood at 5.7 µM, the Ki turned out to be 3.8 µM and the nH was 0.8. The nH in series [2] was found to be 0.4. In series [3], this molecule registered an IC50 of 360 µM and an antagonist equilibrium constant (Kb) of 46 µM. Besides, the nH in series [4] stood at 0.5.

Take `CCC(=O)NC1CCN(CCc2ccccc2)CC1` [HCV-3, N-(1-phenethylpiperidin-4-yl)propionamide]: the “inhibition of L-DOPA induced dyskinesias” value in [5] and in [10] was “significant inhibition” each time. Besides, the “CYP3A4 mRNA expression” value in series [6] was “didn't cause a statistically significant change”. Further, the “effectiveness compared with amantadine” value in series [7] is listed as “significantly more effective than amantadine”. Also, the toxicity entry in [8] is “virtually no toxicity”. Further, in [9], the “hERG inhibition activity (conclusion)” value is reported as “weak or no significant hERG inhibition activity”. For the same molecule, the CYP2C9 inhibition entry in series [11] was “No significant inhibition”. Besides, the “CYP2B6 mRNA expression” value in series [12] is given as “slight, yet statistically significant decrease”. Besides, in series [13], the efflux ratio at 60 min, 10 µM was 1.48. Besides, the “permeability in the MDCK assay” value in [14] was “highly permeable”. Besides, the efflux ratio at 120 min, 10 µM in [15] came out at 2.7. The “permeability in the Caco-2 assay” value in series [16] is given as “highly permeable in both directions”. Moreover, the “CYP1A2 mRNA expression” value in series [17] is reported as “didn't cause a statistically significant change”. The CYP2B6 inhibition result in [18] is recorded as “No significant inhibition”. For the same molecule, in series [19], the CYP2C8 inhibition result was “No significant inhibition”. Moreover, the CYP2D6 inhibition entry in series [20] (25 μM, 30 minute plus NADPH incubation) is “approximately 40%”. Further, the “time-dependent CYP2D6 inhibition (conclusion)” value in [20] (IC50 shift, 30 min pre-incubation with/without NADPH) was “no evidence of time-dependent CYP2D6 inhibition”. Also, the IC50 at 5 min in series [20] (human, microsomes, probe dextromethorphan (5 µM), 0 minute incubation) is > 25 µM. Moreover, the inhibition at 5 min, 25 µM in series [20] (human, microsomes, probe dextromethorphan (5 µM), 25 μM, 0 minute incubation) is ~40%. Also, the “CYP2C19 IC50” value in series [21] is “too weak to generate an IC50 value”. Further, the CYP3A4 inhibition entry in series [22] and in series [23] was “No significant inhibition” throughout. In series [24], the binding entry is listed as “no binding at all could be detected”. Also, the bioavailability result in series [25] is “highly bioavailable”. Further, the CYP1A2 inhibition entry in [26] was “No significant inhibition”. Moreover, the “binding to plasma proteins” value in series [27] is recorded as “weak, or no noticeable binding”.

As to `CCC(=O)NC1CCN(CCc2cccs2)CC1` [N-(1-(2-(thiophen-2-yl)ethyl)piperidin-4-yl)propionamide], the IC50 in series [1] came out at 11 µM; in [3] it was 440 µM. Further, in [1], the inhibitory constant (Ki) was found to be 7.6 µM. For the same molecule, the nH in [1] came out at 1.2; in series [2], 0.6; in [4] it was 0.6; in series [28] it was 0.9. For the same molecule, the Kb in [3] worked out at 57 µM.

Take `O=C(NC1CCN(CCc2ccccc2)CC1)c1ccccc1` [N-(1-phenethylpiperidin-4-yl)benzamide]: the IC50 was 4 µM in series [1] and 350 µM in series [3]. For the same molecule, in [1], the inhibition constant Ki was determined as 0.27 µM. Further, the nH in series [1] came out at 1.3; in [4], 0.6; in [29] it was 0.9; in [28], 0.7. The Kb in [3] was found to be 46 µM.

As for `O=C(NC1CCN(CCc2ccccc2)CC1)c1ccco1` [N-(1-phenethylpiperidin-4-yl)furan-2-carboxamide], the IC50 in [1] amounted to 4.6 µM; in [3], 380 µM. The same molecule had an inhibition constant (Ki) in series [1] of 3 µM. For the same molecule, the nH in series [1] is recorded as 0.7; in [4] it was 1.1; in [29], 0.8; in [28], 1. The molecule further had a Kb in [3] of 50 µM.

Consider `O=C(NC1CCN(CCc2ccccc2)CC1)c1ccoc1` [N-(1-phenethylpiperidin-4-yl)furan-3-carboxamide], for which the IC50 stood at 3 µM in [1] and 230 µM in series [3]. In [1], this molecule registered an inhibitory constant (Ki) of 3 µM. The nH is 0.7 in series [1], 1.1 in series [4], 0.8 in series [29] and 1 in series [28]. The same molecule displayed an antagonist equilibrium constant (Kb) in series [3] of 50 µM.

(Values after patent US20180235949A1 (priority 2015, published 2018).)
